Measured values published in PMC10221159, “Investigation of N-Acetyltransferase 2-Mediated Drug Interactions of Amifampridine: In Vitro and In Vivo Evidence of Drug Interactions with Acetaminophen” (Pharmaceutics, 2023).
Where two headings read alike, the source gives them in different places.

Assays:
[1] = Urinary excretion of amifampridine and 3-N-acetylamifampridine in rats; format: in vivo, rat; settings: Sprague Dawley, rat, urine, oral, 2 mg/kg, 24 h, oral amifampridine 2 mg/kg, read-out: total urinary recovery
Method: Urine samples were collected at intervals of 0–4, 4–8, and 8–24 h after the administration of amifampridine to control and acetaminophen-treated rats (n = 6), as described above, and were diluted 500-fold with potassium phosphate buffer. An amount of 200 μL of IS was then added to the samples and vortexed for a minute. After centrifugation at 14,000 rpm for 15 min at 4 °C, the supernatant was transferred into vials for quantification of amifampridine and 3-N-acetylamifampridine.

[2] = humans, cited from earlier work
[3] = In vivo pharmacokinetic interaction study in rats (plasma); design: species or system rat; settings: oral amifampridine 2 mg/kg; for AUC(0-inf) / AUC(0-t) / CL/F / Cmax / MRT / Tmax / Vd/F / half-life / CL renal: male, Sprague-Dawley, rat, po, 2 mg/kg; for AUC(0-inf) / AUC(0-t) / CL/F / Cmax / MRT / Tmax / Vd/F / half-life: plasma; for CL renal: urine and plasma, renal clearance
Method: Male Sprague Dawley (SD) rats (7–8 weeks old, 260–330 g) were purchased from Orient Bio, Inc. (Seongnam, Korea). The rats were housed under a light/dark cycle for 12 h and were left for at least a week before the experiment to adapt to the laboratory environment. Water and food were provided ad libitum. The rats were fasted overnight with free access to water prior to pharmacokinetic studies. The protocols for animal experiments were approved in accordance with the Guidelines for Animal Care and Use of Gachon University (approval no.: GIACUC-R2021006; 13 May 2021).
The rats were anesthetized with a mixture of Rompun and Zoletil by intramuscular injection and received an intraperitoneal injection of vehicle (40:60 PEG400:normal saline; n = 8) or 100 mg/kg acetaminophen (n = 8). After 10 min, 2 mg/kg amifampridine (dissolved in saline) was administered orally. Blood samples were collected at 0, 5, 15, 30, 60, 90, 120, 240, and 360 min and centrifuged at 14,000 rpm for 15 min at 4 °C. For analysis of amifampridine and 3-N-acetylamifampridine, 50 μL of plasma samples was mixed with 100 μL IS solution (5 ng/mL ondansetron in acetonitrile) and the mixture was vortexed followed by centrifugation at 14,000 rpm for 15 min at 4 °C. For the analysis of acetaminophen, 200 μL of IS (tolbutamide 200 ng/mL in methanol) was added to the plasma samples which were diluted 10-fold using the blank plasma and then vortexed for one minute. Further, the samples were centrifuged at 14,000 rpm for 15 min at 4 °C. The supernatants were transferred to LC vials for quantification.
Non-compartment analysis (NCA) was performed to calculate the pharmacokinetic parameters for the in vivo study using WinNonlin (Version 8.3. (Pharsight Corporation, Mountain View, CA, USA)). The area under the plasma concentration–time curve from time 0 to infinity (AUCinf) was calculated by the linear trapezoidal method and standard extrapolation using λ, where λ represents the slope of the terminal phase in a semi-log graph for plasma concentration–time profiles. Renal clearance (CLr) was determined by dividing the accumulated amount of drug excreted in the urine by AUCinf.

[4] = In vitro metabolic profile of amifampridine (3-N-acetylamifampridine formation) in rat liver S9 fraction; format: in vitro ADME
Method: An in vitro metabolic study was performed to investigate the metabolic profile of amifampridine in the rat liver S9 fraction. The reaction mixture, which consisted of rat liver S9 fraction (2 mg/mL protein) and 2 mM acetyl-CoA in potassium phosphate buffer, was prepared and incubated for 5 min in a thermal mixer (200 oscillations/min) at 37 °C. Then, amifampridine was added to the reaction mixture to make the final concentrations of amifampridine at 2, 10, 20, 50, 100, 500, and 1000 μM. After further incubation for 15 min at 37 °C, 50 μL of the sample was transferred into the tube containing 200 μL of ice-cold potassium phosphate buffer and mixed by vortexing. An amount of 50 μL of the mixture was then transferred into the tube containing 100 μL of internal standard (IS; 5 ng/mL ondansetron in acetonitrile), followed by vortexing and centrifugation at 14,000 rpm for 15 min at 4 °C. The supernatant was transferred into vials for HPLC-tandem mass spectrometry (MS/MS) analysis and the concentration of 3-N-acetylamifampridine was determined.
The Vm and Km values, Michaelis–Menten parameters, were determined by linear regression using Lineweaver–Burk equation, as follows: 1/v=Km/Vmax×1/S+1/Vmax where v is the rate of amifampridine metabolism to 3-N-acetylamifampridine in the S9 fraction, [S] is the concentration of amifampridine, Vmax is the maximum metabolic rate of amifampridine, and Km is the concentration of amifampridine at half Vmax. The intrinsic clearance (CLint) was calculated using Vmax/Km, with the assumption that Km is much greater than [S], as is usual in clinical practice.

[5] = Tissue distribution of amifampridine and 3-N-acetylamifampridine in rats; format: in vivo, rat; settings: for Kp at 1 h: rat, 60 min after oral amifampridine 2 mg/kg
Method: To investigate the effects of acetaminophen on the tissue distribution of amifampridine and 3-N-acetylamifampridine, rats were sacrificed at 60 min after administration of amifampridine in control and acetaminophen-treated rats (n = 6) as mentioned above, and the tissues, including liver, kidney, heart, lungs, spleen, brain, and muscle tissues, were obtained. Tissue samples were homogenized using a Wheaton^TM Dounce tissue grinder (Wheaton Millipore, Billerica, MA, USA) after adding a three-fold volume of PBS. An amount of 100 μL of tissue homogenates was transferred to the tube and 200 μL of IS solution was then added and vortexed followed by centrifugation at 14,000 rpm for 15 min at 4 °C. The supernatants were transferred to LC vials for quantification. For muscle samples, the supernatant was concentrated using a desiccator and reconstituted with the mobile phase solvent.

[6] = acetaminophen-treated (100 mg/kg) vs control rats
[7] = acetaminophen-treated group (100 mg/kg ip)
[8] = 60 min, acetaminophen-treated vs control rats

dose excreted ([1]; acetaminophen-treated rats): 18.9%
dose excreted ([1]; control rats): 6.7%
increase in AUCinf [3, 6]: 185.64%
increase in Cmax [3, 6]: 208.34%
AUC(0-inf) [3, 7]: 434 ng·h/mL
AUC(0-t) [3, 7]: 414 ng·h/mL
CL/F [3, 7]: 81.7 ± 21.2 mL/min/kg
Cmax [3, 7]: 200 ± 100 ng/mL
MRT [3, 7]: 2.08 h
Tmax [3, 7]: 1 h
Vd/F [3, 7]: 9.83 ± 4.69 L/kg
half-life [3, 7]: 1.36 ± 0.416 h
AUC(0-inf) ([3]; control group): 152 ng·h/mL
AUC(0-t) ([3]; control group): 141 ng·h/mL
CL/F ([3]; control group): 225 ± 38.3 mL/min/kg
Cmax ([3]; control group): 70 ± 20 ng/mL
MRT ([3]; control group): 2.29 h
Tmax ([3]; control group): 0.781 h
Vd/F ([3]; control group): 26.9 L/kg
half-life ([3]; control group): 1.4 ± 0.352 h
CL renal [3, 7]: 3.87 ± 0.91 mL/min
CL renal ([3]; control group): 4.89 ± 1.71 mL/min
Vmax ([4]; 3-N-acetylamifampridine formation, rat liver S9, Lineweaver–Burk plot): 5130 ± 1100 pmol/min/mg protein
intrinsic clearance in liver S9 fraction ([4]; liver S9 fraction, Vmax/Km, rat liver S9, read-out: CLint): 78 ± 11 µL/min/mg
Km at 15 min ([4]; rat liver S9 fraction, 3-N-acetylamifampridine formation, rat liver S9 (2 mg/mL protein), Lineweaver–Burk plot): 66.6 ± 24.2 µM
increase of concentration in liver [5, 8]: 270.26%
increase of concentration in muscle [5, 8]: 413.11%
increase of concentration in spleen [5, 8]: 265.17%
Kp at 1 h ([5]; Sprague Dawley, brain, acetaminophen 100 mg/kg, read-out: Tissue partition coefficient (Kp), Brain): 0.1
Kp at 1 h ([5]; Sprague Dawley, brain, control, read-out: Tissue partition coefficient (Kp), Brain): 0.1 ± 0.3
Kp at 1 h ([5]; Sprague Dawley, heart, acetaminophen 100 mg/kg, read-out: Tissue partition coefficient (Kp), Heart): 0.7 ± 0.5
Kp at 1 h ([5]; Sprague Dawley, heart, control, read-out: Tissue partition coefficient (Kp), Heart): 0.6 ± 0.5
Kp at 1 h ([5]; Sprague Dawley, lungs, acetaminophen 100 mg/kg, read-out: Tissue partition coefficient (Kp), Lungs): 2.2 ± 2.8
Kp at 1 h ([5]; Sprague Dawley, lungs, control, read-out: Tissue partition coefficient (Kp), Lungs): 1.7 ± 1.1
Kp at 1 h ([5]; Sprague Dawley, spleen, acetaminophen 100 mg/kg, read-out: Tissue partition coefficient (Kp), Spleen): 1.6 ± 1
Kp at 1 h ([5]; Sprague Dawley, spleen, control, read-out: Tissue partition coefficient (Kp), Spleen): 1 ± 0.5
decrease of Kp in the kidneys ([5]; acetaminophen-treated vs control rats): 51%
Kp at 1 h ([5]; male, Sprague-Dawley, kidney, acetaminophen 100 mg/kg, read-out: Tissue partition coefficient (Kp), Kidney): 3.6 ± 0.4
Kp at 1 h ([5]; male, Sprague-Dawley, kidney, control, read-out: Tissue partition coefficient (Kp), Kidney): 7.4 ± 2.7
Kp at 1 h ([5]; male, Sprague-Dawley, liver, acetaminophen 100 mg/kg, read-out: Tissue partition coefficient (Kp), Liver): 3 ± 1.5
Kp at 1 h ([5]; male, Sprague-Dawley, liver, control, read-out: Tissue partition coefficient (Kp), Liver): 3.8 ± 2.6
Kp at 1 h ([5]; male, Sprague-Dawley, muscle, acetaminophen 100 mg/kg, read-out: Tissue partition coefficient (Kp), Muscle): 0.4 ± 0.2
Kp at 1 h ([5]; male, Sprague-Dawley, muscle, control, read-out: Tissue partition coefficient (Kp), Muscle): 0.5 ± 0.4
Compound: Nc1ccncc1N [amifampridine]
dose excreted via the urine within 24 h ([2]; after administration of amifampridine): 19%
dose excreted via the urine within 24 h as amifampridine plus 3-N-acetylamifampridine [2]: More than 90%
elimination half-life [2]: approximately 2.5 h
